This note sets out measurements from US10285982B2, “3-(1H-pyrrolo[2,3-B]pyridin-2-yl)-1H-pyrazolo[3,4-C]pyridines and therapeutic uses thereof” (Samumed, LLC, priority 2015, dated 2019).

Molecules are shown by their SMILES.

What all share (format): cell-based
The subject of test [1] is Wnt activity (Sp5-Luc reporter, SW480 colon carcinoma cells). Kind of test: Wnt activity screening assay, Sp5-Luc reporter gene in SW480 cells. The note with it: Homo sapiens; for EC50: overnight incubation. From the text:
The screening assay for Wnt activity is described as follows. Reporter cell lines can be generated by stably transducing cancer cell lines (e.g., colon cancer) or primary cells (e.g., IEC-6 intestinal cells) with a lentiviral construct that includes a Wnt-responsive promoter driving expression of the firefly luciferase gene.
SW480 colon carcinoma cells were transduced with a lentiviral vector expressing luciferase with a human Sp5 promoter consisting of a sequence of eight TCF/LEF binding sites. SW480 cells stably expressing the Sp5-Luc reporter gene and a hygromycin resistance gene were selected by treatment with 150 μg/mL of hygromycin for 7 days. These stably transduced SW480 cells were expanded in cell culture and used for all further screening activities. Each compound was dissolved in DMSO as a 10 mM stock and used to prepare compound source plates. Serial dilution (1:3, 10-point dose-response curves starting from 10 μM) and compound transfer was performed using the ECHO 550 (Labcyte, Sunnyvale, Calif.) into 384-well white solid bottom assay plates (Greiner Bio-One) with appropriate DMSO backfill for a final DMSO concentration of 0.1%. For Sp5-Luc reporter gene assays, the cells were plated at 4,000 cells/well in 384-well plates with medium containing 1% fetal bovine serum and incubated overnight at 37° C. and 5% CO2. Following incubation, 20 μl of BrightGlo luminescence reagent (Promega) was added to each well of the 384-well assay plates. The plates were placed on an orbital shaker for 2 min and then luminescence was quantified using the Envision (Perkin Elmer) plate reader. Readings were normalized to DMSO only treated cells, and normalized activities were utilized for EC50 calculations using the dose-response log (inhibitor) vs. response-variable slope (four parameters) nonlinear regression feature available in GraphPad Prism 5.0 (or Dotmatics). For EC50 of >10 μM, the percent inhibition at 10 μM is provided.
Background: A reporter such as luciferase makes a cellular process visible.

Test [2] relates to IL-6 (THP-1 cells). The test can be described thus: IL-6 inhibition in LPS-stimulated THP-1 cells (HTRF). The note with it: Homo sapiens; IL-6 in THP-1 cells, LPS 500 ng/mL, 22 hours. As for the experimental part:
Human monocyte cell line (THP-1 cells; Catalog # TIB-202, ATCC, Manassas, Va.) were cultured in Roswell Park Memorial Institute (RPMI) 1640 Medium (Catalog #21870-100, Buffalo, N.Y.) with 1% L-glutamine, 1% HEPES, 1% Sodium Pyruvate, 2% Sodium Bicarbonate supplemented with 100 units/mL penicillin, 50 μg/mL streptomycin, 2-mercaptoethanol (0.05 mM) [basal medium] and 10% fetal bovine serum (Catalog #16140089, Life Technologies, Carlsbad, Calif.) at 37° C. and 5% CO2.
THP-1 cells were cultured in basal media with 1% FBS for 24 hours before the start of the assay. Each compound was dissolved in DMSO as a 10 mM stock and used to prepare compound source plates. Serial dilution (1:3, 10-point dose-response curves starting from 10 μM) and compound transfer was performed using the ECHO 550 (Labcyte, Sunnyvale, Calif.) into 384-well white low volume assay plates (Greiner Bio-One) with appropriate DMSO backfill for a final DMSO concentration of 0.1%. THP-1 cells were plated at 5000 cells/well in the 384-well plates and incubated at 37° C. for 2 h. 500 ng/mL of LPS was added after 2 hours and cells were incubated for another 22 hours at 37° C. Plates were spun in a centrifuge for 1 minute at […] and a mixture of anti-IL6 XL665, and anti-IL6 Cryptate diluted in reconstitution buffer (Cisbio Inc.) was added to each well. Following incubation for 3 hrs at room temperature, Homogeneous Time-Resolved Fluorescence (HTRF) was measured using the Envision (Perkin Elmer) at 665 nm and […]. The ratio of fluorescence at 665 nm to 620 nm was used as a readout for IL6 quantification. All samples were processed in duplicate. Readings were normalized to DMSO treated cells and normalized activities were utilized for EC50 calculations using the dose-response log (inhibitor) vs. response-variable slope (four parameters) nonlinear regression feature available in GraphPad Prism 5.0 (or Dotmatics). For EC50 of >10 μM, the percent inhibition at 10 μM is provided.

In test [3] the test system is primary human fibroblasts derived from IPF patients (LL29 cells) treated with TGF-β1. The test can be described thus: Inhibition of fibrotic process, αSMA staining in TGF-β1 treated LL29 fibroblasts. To be noted: Fibroblast, 96 h, % αSMA positive LL29 cells, TGF-β1 20 ng/mL, 4 days. From the text:
Representative compounds were screened using primary human fibroblasts (derived from IPF patients) treated with TGF-β1 to determine their ability to inhibit the fibrotic process.
Primary human fibroblasts derived from IPF patients (LL29 cells) [^1Xiaoqiu Liu, et. al., “Fibrotic Lung Fibroblasts Show Blunted Inhibition by cAMP Due to Deficient cAMP Response Element-Binding Protein Phosphorylation”, Journal of Pharmacology and Experimental Therapeutics (2005), 315(2), 678-687; ^2Watts, K. L., et. al., “RhoA signaling modulates cyclin D1 expression in human lung fibroblasts; implications for idiopathic pulmonary fibrosis”, Respiratory Research (2006), 7(1), 88] were obtained from American Type Culture Collection (ATCC) and expanded in F12 medium supplemented with 15% Fetal Bovine Serum and Penicillin/Streptomycin.
Each compound was dissolved in DMSO as a 10 mM stock and used to prepare compound source plates. Serial dilution (1:2, 11-point dose-response curves from 10 μM to 1.87 nM) and compound transfer was performed using the ECHO 550 (Labcyte, Sunnyvale, Calif.) into 384-well clear bottom assay plates (Greiner Bio-One) with appropriate DMSO backfill for a final DMSO concentration of 0.1%. LL29 cells are plated at 1,500 cells/well in 80 μL/well F12 medium supplemented with 1% Fetal Bovine Serum. One hour after addition of the cells, TGF-β1 (Peprotech; 20 ng/mL) was added to the plates to induce fibrosis (ref. 1 and 2 above). Wells treated with TGF-β1 and containing DMSO were used as controls. Cells were incubated at 37° C. and 5% CO2 for 4 days. Following incubation for 4 days, SYTOX green nucleic acid stain (Life Technologies [Thermo Fisher Scientific]) was added to the wells at a final concentration of 1 μM and incubated at room temperature for 30 min. Cells were then fixed using 4% formaldehyde (Electron Microscopy Sciences), washed 3 times with PBS followed by blocking and permeabilization using 3% Bovine Serum Albumin (BSA; Sigma) and 0.3% Triton X-100 (Sigma) in PBS. Cells were then stained with antibody specific to α-smooth muscle actin (αSMA; Abcam) (ref. 1 and 2 above) in 3% Bovine Serum Albumin (BSA; Sigma) and 0.3% Triton X-100 (Sigma) in PBS, and incubated overnight at 4° C. Cells were then washed 3 times with PBS, followed by incubation with Alexa Flor-647 conjugated secondary antibody (Life Technologies [Thermo Fisher Scientific]) and DAPI at room temperature for 1 hour. Cells were then washed 3 times with PBS and plates were sealed for imaging. αSMA staining was imaged by excitation at 630 nm and emission at 665 nm and quantified using the Compartmental Analysis program on the CellInsight CX5 (Thermo Scientific). Dead or apoptotic cells were excluded from analysis based on positive SYTOX green staining. % of total cells positive for αSMA were counted in each well and normalized to the average of 11 wells treated with TGF-β1 on the same plate using Dotmatics' Studies Software. The normalized averages (fold change over untreated) of 3 replicate wells for each compound concentration were used to create dose-responses curves and EC50 values were calculated using non-linear regression curve fit in the Dotmatics' Studies Software. For EC50 of >10 μM, the percent inhibition at 10 μM is provided.

For test [4], the system named is SW480 colon cancer cells. The test can be described thus: Cell viability assay (CellTiter-Blue). To be noted: Homo sapiens, 96 h, four days. As for the experimental part:
Representative compounds were screened using the following assay procedure to assess the effect on cell viability as described below.
Each compound was dissolved in DMSO as a 10 mM stock and used to prepare compound source plates. Serial dilution (1:3, 8-point dose-response curves from 10 μM to 0.0045 μM) and compound transfer was performed using the ECHO 550 (Labcyte, Sunnyvale, Calif.) into 96-well clear bottom, black-walled plates (Corning-Costar).
Approximately 2×10^3 SW480 colon cancer cells were seeded into each well and allowed to incubate in the presence or absence of compound for four days at 37° C./5% CO2. Eight replicates of DMSO-treated cells served as controls and cells treated with compound were performed in duplicate.
After incubation, 20 μL of CellTiter-Blue (Promega) was added to each well allowed to incubate for approximately 3 hours. This reagent was a buffered solution which contains resazurin, metabolically active cells were able to reduce rezarurin (blue) into resorufin (pink) which was highly fluorescent. This measured fluorescence was used as a readout for cell viability.
After incubation, the plates were read at Ex 560 nm Em 590 nm (Cytation 3, BioTek). Dose-response curves were generated and EC50 concentration values were calculated using non-linear regression curve fit in the GraphPad Prism (San Diego, Calif.) or Dotmatics' Studies Software (Bishops Stortford, UK). For EC50 of >10 μM, the percent inhibition at 10 μM is provided.
Background: Alamar Blue is a resazurin reagent that responds to reducing activity.

For orientation: inhibition means the change of the read-out against control, counted positive when it falls. By EC50 is commonly meant the concentration at which the effect is half-maximal. As for `Fc1ccc(-c2ccnc3[nH]c(-c4n[nH]c5cnc(-c6cncc(CN7CCC(F)(F)C7)c6)cc45)cc23)cc1` [Compound 54, 5-(5-((3,3-Difluoropyrrolidin-1-yl)methyl)pyridin-3-yl)-3-(4-(4-fluorophenyl)-1H-pyrrolo[2,3-b]pyridin-2-yl)-1H-pyrazolo[3,4-c]pyridine], in test [1] (at 10 μM, given where EC50 >10 μM, read-out: percent inhibition at 10 μM), the inhibition at 10 µM amounted to 28.1%. Further, the EC50 in test [1] was > 10000 nM; in test [2], 2050 nM; in test [3], 1110 nM; in test [4] it was 1400 nM.

For `Cc1ccncc1-c1cc2c(-c3cc4c(-c5ccc(F)cc5)ccnc4[nH]3)n[nH]c2cn1` [Compound 33, 3-(4-(4-Fluorophenyl)-1H-pyrrolo[2,3-b]pyridin-2-yl)-5-(4-methylpyridin-3-yl)-1H-pyrazolo[3,4-c]pyridine], the half-maximal effective concentration (EC50) turned out to be 642 nM in test [1], 4050 nM in test [2], 146 nM in test [3] and 1050 nM in test [4].

In the case of `CC(C)C(=O)Nc1cncc(-c2cc3c(-c4cc5c(N6CCCCC6)ccnc5[nH]4)n[nH]c3cn2)c1` [Compound 177, N-(5-(3-(4-(Piperidin-1-yl)-1H-pyrrolo[2,3-b]pyridin-2-yl)-1H-pyrazolo[3,4-c]pyridin-5-yl)pyridin-3-yl)isobutyramide], the 50% effective concentration (EC50) in test [1] is 867 nM; in test [2], 9850 nM; in test [3], 1490 nM; in test [4], 1080 nM.

Take `CC(C)Nc1cncc(-c2cc3c(-c4cc5c(N6CCCCC6)ccnc5[nH]4)n[nH]c3cn2)c1` [Compound 180, N-Isopropyl-5-(3-(4-(piperidin-1-yl)-1H-pyrrolo[2,3-b]pyridin-2-yl)-1H-pyrazolo[3,4-c]pyridin-5-yl)pyridin-3-amine]: the EC50 in test [1] was found to be 1630 nM; in test [2], 9550 nM; in test [3] it was 2430 nM; in test [4] it was 1540 nM.

On to `Cc1ncc(-c2cc3c(-c4cc5c(-c6cccs6)ccnc5[nH]4)n[nH]c3cn2)n1C` [Compound 701, 5-(1,2-Dimethyl-1H-imidazol-5-yl)-3-(4-(thiophen-2-yl)-1H-pyrrolo[2,3-b]pyridin-2-yl)-1H-pyrazolo[3,4-c]pyridine], for which the EC50 in test [1] came to 1060 nM; in test [2], 988 nM; in test [3] it was 928 nM; in test [4] it was 1220 nM.

As for `CC(C)(C)CC(=O)Nc1cncc(-c2cc3c(-c4cc5c(N6CCCCC6)ccnc5[nH]4)n[nH]c3cn2)c1` [Compound 184, 3,3-Dimethyl-N-(5-(3-(4-(piperidin-1-yl)-1H-pyrrolo[2,3-b]pyridin-2-yl)-1H-pyrazolo[3,4-c]pyridin-5-yl)pyridin-3-yl)butanamide], the EC50 turned out to be 3240 nM in test [1], 3310 nM in test [2], 1960 nM in test [3] and 4300 nM in test [4].

Regarding `CC(C)(C)CC(=O)Nc1cncc(-c2cc3c(-c4cc5c(-c6ccc(F)cc6)ccnc5[nH]4)n[nH]c3cn2)c1` [Compound 44, N-(5-(3-(4-(4-Fluorophenyl)-1H-pyrrolo[2,3-b]pyridin-2-yl)-1H-pyrazolo [3,4-c]pyridin-5-yl)pyridin-3-yl)-3,3-dimethylbutanamide], the EC50 in test [1] came out at 144 nM; in test [2] it was 4400 nM; in test [3], 311 nM; in test [4] it was 1160 nM.

For the compound `c1cncc(-c2cc3c(-c4cc5c(N6CCCCC6)ccnc5[nH]4)n[nH]c3cn2)c1` [Compound 172, 3-(4-(Piperidin-1-yl)-1H-pyrrolo[2,3-b]pyridin-2-yl)-5-(pyridin-3-yl)-1H-pyrazolo[3,4-c]pyridine], the EC50 in test [1] worked out at 2240 nM; in test [2], 3400 nM; in test [3], 1730 nM; in test [4], 3540 nM.

Turning to `CC(C)Nc1cncc(-c2cc3c(-c4cc5c(-c6ccc(F)cc6)ccnc5[nH]4)n[nH]c3cn2)c1` [Compound 40, 5-(3-(4-(4-Fluorophenyl)-1H-pyrrolo[2,3-b]pyridin-2-yl)-1H-pyrazolo[3,4-c]pyridin-5-yl)-N-isopropylpyridin-3-amine], the concentration giving a half-maximal response (EC50) in test [1] worked out at 223 nM; in test [2], 9380 nM; in test [3] it was 43 nM; in test [4], 179 nM.
